Measurements taken from ChEMBL document CHEMBL1201862, “PubChem BioAssay data set” (2004).
Active and inactive are the calls of the source.

Legend:
[1] = A cytotoxicity screen of small molecule inhibitors of the PhoP region in Salmonella typhi identified in the primary screen. [Related pubchem assays: 1850, 1864, 1985 ]; type: functional
[2] = molecular target: Aryl hydrocarbon receptor (Homo sapiens, UniProt P35869); assay: Luminescence-based cell-based high throughput dose response assay for activators of the Aryl Hydrocarbon Receptor (AHR). [Related pubchem assays: 2796 (Primary screen (AHR activators in singlicate)), 2845 (Confirmation screen (AHR activators in triplicate)), 434939 (Counterscreen (PXR activators in triplicate)), 2804 (Summary (AHR activators))]; type: ADME
[3] = molecular target: Serine/threonine-protein phosphatase PP1-alpha catalytic subunit (Homo sapiens, UniProt P62136); assay: PP1 phosphatase inhibitors, dose response, biochemical, fluorescence (AID 2394)
[4] = molecular target: Serine/threonine-protein phosphatase (Homo sapiens, UniProt Q9BPW0); assay: PP5 phosphatase inhibitors, dose response, biochemical, fluorescence (AID 2395)
Estrogen receptor = molecular target: T1, Estrogen receptor (Homo sapiens, UniProt P03372);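 note: potency for inhibiting coactivator peptide recruitment to the receptor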
T1 sequence (P03372 whole entry): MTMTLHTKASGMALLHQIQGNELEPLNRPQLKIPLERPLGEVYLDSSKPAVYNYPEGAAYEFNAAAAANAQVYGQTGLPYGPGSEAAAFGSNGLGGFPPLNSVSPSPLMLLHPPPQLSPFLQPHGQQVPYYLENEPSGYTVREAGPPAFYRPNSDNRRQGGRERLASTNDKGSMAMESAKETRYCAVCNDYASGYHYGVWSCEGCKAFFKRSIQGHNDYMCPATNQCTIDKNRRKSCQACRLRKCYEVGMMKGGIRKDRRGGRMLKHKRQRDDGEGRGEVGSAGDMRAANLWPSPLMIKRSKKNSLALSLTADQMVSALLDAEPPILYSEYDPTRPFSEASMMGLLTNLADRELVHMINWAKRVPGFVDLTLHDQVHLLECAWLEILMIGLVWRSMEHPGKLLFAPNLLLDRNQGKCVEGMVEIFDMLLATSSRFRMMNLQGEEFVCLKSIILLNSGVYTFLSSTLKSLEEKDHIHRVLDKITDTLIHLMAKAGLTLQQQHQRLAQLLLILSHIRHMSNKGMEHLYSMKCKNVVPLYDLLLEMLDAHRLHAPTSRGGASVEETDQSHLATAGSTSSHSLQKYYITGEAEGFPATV

Protein skinhead-1 = molecular target: T2, Protein skinhead-1 (Caenorhabditis elegans, UniProt P34707); type: functional
T2 sequence (P34707 whole entry): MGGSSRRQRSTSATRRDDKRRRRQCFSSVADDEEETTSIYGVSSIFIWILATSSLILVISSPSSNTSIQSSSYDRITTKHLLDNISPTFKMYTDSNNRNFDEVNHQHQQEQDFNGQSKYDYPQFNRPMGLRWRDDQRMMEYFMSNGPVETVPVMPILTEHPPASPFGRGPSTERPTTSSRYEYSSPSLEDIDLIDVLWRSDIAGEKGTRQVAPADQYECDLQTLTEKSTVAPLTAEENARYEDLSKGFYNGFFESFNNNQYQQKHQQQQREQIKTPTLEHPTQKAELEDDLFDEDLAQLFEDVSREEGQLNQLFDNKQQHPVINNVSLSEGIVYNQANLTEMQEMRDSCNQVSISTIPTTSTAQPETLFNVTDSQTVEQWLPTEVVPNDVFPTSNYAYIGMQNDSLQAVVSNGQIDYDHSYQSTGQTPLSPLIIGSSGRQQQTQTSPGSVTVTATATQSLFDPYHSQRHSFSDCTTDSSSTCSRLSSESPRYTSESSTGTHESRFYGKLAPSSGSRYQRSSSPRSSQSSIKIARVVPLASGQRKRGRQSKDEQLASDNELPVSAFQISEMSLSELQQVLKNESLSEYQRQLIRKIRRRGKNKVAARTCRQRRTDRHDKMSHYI

[5] = cytotoxicity in HPDE-C7 cells, cell-based, fluorescence, HTS (AID 430); type: functional; details: Homo sapiens
[6] = cytotoxicity in KRAS-transformed pancreatic duct cells, primary screen, cell-based, fluorescence, HTS (AID 431); type: functional; details: Homo sapiens;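 note: cell line used: HPDE-C7K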
[7] = M. tuberculosis H37Rv growth inhibitors, H37Rv strain (AID 1626); type: functional
Large T antigen = Large T antigen (Simian virus 40, UniProt P03070); type: functional, Betapolyomavirus macacae;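 note: Confirmatory-stage PubChem screen for compounds that inhibit SV40 T antigen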
[8] = molecular target: T3, Replicative DNA helicase DnaB (Mycobacterium tuberculosis, UniProt P9WMR3); assay: DnaB intein splicing inhibitors, dose response, biochemical, cell-free fluorescence (AID 449749); type: functional
T3 sequence (P9WMR3 whole entry): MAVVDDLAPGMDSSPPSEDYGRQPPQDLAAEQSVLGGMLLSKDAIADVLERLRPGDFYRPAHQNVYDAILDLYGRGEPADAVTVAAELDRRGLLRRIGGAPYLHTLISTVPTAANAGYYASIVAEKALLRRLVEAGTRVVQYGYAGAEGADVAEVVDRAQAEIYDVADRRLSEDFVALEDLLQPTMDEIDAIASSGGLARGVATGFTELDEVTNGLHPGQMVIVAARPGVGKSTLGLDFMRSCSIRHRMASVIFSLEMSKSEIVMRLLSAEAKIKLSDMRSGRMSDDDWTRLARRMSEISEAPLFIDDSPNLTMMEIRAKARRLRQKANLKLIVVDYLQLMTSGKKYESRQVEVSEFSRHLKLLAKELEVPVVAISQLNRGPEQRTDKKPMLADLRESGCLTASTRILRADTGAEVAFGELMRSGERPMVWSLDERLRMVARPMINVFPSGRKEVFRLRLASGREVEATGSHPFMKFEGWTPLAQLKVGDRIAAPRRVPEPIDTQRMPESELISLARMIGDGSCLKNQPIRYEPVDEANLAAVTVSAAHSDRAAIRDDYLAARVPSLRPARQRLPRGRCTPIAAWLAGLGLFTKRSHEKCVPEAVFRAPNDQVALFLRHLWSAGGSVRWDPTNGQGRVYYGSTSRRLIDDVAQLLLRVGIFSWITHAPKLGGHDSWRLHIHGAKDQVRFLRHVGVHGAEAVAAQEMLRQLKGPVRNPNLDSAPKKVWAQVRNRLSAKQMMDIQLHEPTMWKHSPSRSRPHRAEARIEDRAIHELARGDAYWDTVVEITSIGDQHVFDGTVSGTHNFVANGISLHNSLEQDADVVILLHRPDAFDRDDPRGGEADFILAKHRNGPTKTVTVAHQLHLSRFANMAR

Protein RecA = molecular target: T4, Protein RecA (Mycobacterium tuberculosis, UniProt P9WHJ3); assay: Fluorescence Cell-Free Homogeneous Dose Retest to Identify Inhibitors of RecA-Intein Splicing Activity. [Related pubchem assays (depositor defined):AID2097, AID2223, AID489010, AID492950]; type: functional
T4 sequence (P9WHJ3 whole entry): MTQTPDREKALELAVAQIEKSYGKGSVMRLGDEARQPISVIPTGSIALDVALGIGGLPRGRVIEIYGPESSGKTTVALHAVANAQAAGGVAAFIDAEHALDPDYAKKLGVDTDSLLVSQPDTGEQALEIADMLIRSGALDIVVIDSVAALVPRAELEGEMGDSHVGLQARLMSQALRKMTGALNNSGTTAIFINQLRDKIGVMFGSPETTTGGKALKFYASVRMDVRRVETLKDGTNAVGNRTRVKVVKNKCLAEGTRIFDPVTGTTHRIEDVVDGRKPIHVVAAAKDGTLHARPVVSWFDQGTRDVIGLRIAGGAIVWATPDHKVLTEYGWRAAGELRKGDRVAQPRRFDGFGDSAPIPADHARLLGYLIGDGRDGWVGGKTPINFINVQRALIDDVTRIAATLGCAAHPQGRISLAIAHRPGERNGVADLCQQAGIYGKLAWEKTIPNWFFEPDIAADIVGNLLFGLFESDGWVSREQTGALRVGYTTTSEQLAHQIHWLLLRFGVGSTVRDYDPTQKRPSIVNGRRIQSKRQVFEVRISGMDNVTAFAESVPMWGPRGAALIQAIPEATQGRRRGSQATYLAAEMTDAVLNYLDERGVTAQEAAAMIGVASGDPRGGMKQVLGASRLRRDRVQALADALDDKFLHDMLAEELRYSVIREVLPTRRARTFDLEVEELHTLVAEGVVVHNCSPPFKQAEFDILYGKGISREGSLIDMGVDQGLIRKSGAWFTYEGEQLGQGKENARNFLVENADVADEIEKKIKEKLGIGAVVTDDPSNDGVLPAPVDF

[9] = molecular target: Fructose-bisphosphate aldolase (Mycobacterium tuberculosis, UniProt P9WQA3); assay: Fluorescence-based biochemical high throughput dose response assay for inhibitors of the fructose-bisphosphate aldolase (FBA) of M. tuberculosis.; type: functional
[10] = P. falciparum 3D7-ScDHODH growth inhibitors, dose response, SYBR Green, dry powder samples (AID 1159570); type: functional, cell-based;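 note: parasite growth measured after 72 hours of compound exposure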
[11] = P. falciparum Dd2 growth inhibitors, dose response, SYBR Green, cherry-picked samples (AID 1159567); type: functional, cell-based
[12] = P. falciparum Dd2 growth inhibitors, dose response, SYBR Green, dry powder samples (AID 1159566); type: functional, cell-based;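 note: potency for growth inhibition with lower SYBR green DNA signal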
[13] = Plasmodium falciparum Dd2 Sybr green parasite growth Measured in Cell-Based and Microorganism Combination System Using Plate Reader - 2153-01_Inhibitor_Dose_DryPowder_Activity_Set3.; type: functional
[14] = P. falciparum ATP4 D1247Y mutant growth inhibitors, dose response, NITD609-resistant line, SYBR Green, dry powder (AID 1159571); type: functional, cell-based;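 note: parasites synchronized at ring stage by sorbitol before testing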
[15] = P. falciparum Dd2 growth inhibitors, dose response, SYBR Green, dry powder samples, set 9 (AID 1159568); type: functional, cell-based

Chain of Aryl hydrocarbon receptor (P35869 whole entry): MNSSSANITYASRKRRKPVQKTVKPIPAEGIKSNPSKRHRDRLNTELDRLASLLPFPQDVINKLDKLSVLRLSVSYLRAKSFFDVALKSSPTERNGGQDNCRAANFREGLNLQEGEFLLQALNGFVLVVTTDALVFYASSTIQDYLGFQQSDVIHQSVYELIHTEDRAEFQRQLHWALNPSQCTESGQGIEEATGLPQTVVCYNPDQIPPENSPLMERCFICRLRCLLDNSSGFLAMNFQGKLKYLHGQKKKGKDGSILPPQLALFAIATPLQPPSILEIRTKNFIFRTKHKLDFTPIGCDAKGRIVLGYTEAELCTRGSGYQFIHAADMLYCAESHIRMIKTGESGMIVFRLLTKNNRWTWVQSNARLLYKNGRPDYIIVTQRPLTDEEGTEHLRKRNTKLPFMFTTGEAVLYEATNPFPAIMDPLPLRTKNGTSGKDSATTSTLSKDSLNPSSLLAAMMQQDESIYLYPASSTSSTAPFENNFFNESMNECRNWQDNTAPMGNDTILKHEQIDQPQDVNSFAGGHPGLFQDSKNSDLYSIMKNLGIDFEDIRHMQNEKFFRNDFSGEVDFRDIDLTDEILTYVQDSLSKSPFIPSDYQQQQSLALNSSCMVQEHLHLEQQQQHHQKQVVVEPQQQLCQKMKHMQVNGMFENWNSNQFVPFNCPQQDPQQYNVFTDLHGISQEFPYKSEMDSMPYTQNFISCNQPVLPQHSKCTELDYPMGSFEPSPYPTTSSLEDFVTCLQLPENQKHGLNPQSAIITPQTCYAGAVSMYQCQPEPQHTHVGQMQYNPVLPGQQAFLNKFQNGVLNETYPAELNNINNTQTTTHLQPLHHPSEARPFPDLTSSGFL
Chain of Serine/threonine-protein phosphatase (Q9BPW0 whole entry): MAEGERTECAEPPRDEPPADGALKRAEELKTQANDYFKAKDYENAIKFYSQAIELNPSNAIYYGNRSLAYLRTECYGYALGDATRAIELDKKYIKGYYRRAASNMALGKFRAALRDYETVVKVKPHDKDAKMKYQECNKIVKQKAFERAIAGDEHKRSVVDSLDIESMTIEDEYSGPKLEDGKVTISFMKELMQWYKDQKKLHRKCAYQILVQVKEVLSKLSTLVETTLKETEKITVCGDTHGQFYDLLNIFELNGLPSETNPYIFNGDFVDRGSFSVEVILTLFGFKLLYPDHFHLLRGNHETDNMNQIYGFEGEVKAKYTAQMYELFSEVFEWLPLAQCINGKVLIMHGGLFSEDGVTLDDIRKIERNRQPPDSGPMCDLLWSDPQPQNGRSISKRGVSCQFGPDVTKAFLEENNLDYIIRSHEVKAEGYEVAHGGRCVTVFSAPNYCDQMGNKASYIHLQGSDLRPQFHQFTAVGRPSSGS
Chain of Serine/threonine-protein phosphatase PP1-alpha catalytic subunit (P62136 whole entry): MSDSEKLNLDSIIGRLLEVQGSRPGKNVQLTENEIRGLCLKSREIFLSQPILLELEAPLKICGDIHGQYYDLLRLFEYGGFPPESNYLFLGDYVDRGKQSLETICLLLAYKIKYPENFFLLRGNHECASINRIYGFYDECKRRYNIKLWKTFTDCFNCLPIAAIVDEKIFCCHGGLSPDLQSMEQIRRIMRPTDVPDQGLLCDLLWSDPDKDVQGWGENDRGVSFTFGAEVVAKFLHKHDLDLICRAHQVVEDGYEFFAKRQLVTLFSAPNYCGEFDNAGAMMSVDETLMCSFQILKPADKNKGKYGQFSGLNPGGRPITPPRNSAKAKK
Chain of Large T antigen (P03070 whole entry): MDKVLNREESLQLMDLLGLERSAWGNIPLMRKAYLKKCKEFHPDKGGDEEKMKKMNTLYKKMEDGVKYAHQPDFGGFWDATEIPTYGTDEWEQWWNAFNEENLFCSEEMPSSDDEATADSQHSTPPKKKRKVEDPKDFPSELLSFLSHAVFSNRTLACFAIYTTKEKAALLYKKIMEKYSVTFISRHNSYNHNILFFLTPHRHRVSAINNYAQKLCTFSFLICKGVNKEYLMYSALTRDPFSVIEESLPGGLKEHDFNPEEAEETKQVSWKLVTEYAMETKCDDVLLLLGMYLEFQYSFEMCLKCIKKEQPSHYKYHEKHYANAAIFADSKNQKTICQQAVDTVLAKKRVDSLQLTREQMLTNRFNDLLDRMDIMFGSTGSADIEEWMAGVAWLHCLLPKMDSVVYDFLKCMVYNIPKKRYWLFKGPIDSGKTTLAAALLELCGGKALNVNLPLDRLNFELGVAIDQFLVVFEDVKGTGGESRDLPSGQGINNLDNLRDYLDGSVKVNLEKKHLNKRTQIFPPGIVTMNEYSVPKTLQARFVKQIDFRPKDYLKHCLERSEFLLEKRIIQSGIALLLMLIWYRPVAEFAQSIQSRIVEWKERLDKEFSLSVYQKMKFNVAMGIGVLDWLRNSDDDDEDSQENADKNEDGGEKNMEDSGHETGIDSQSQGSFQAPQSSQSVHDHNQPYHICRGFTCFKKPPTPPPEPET
Chain of Fructose-bisphosphate aldolase (P9WQA3 whole entry): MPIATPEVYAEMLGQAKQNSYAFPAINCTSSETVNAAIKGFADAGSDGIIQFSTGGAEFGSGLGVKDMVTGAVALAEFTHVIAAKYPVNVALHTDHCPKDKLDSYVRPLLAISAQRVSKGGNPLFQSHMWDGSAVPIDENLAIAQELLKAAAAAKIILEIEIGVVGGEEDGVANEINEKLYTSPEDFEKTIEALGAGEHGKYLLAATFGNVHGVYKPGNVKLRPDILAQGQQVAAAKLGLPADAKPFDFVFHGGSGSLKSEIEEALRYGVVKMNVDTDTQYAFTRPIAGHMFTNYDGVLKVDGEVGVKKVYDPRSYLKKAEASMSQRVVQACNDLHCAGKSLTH

For `COc1ccc(N2CCN(c3cc(C)c4ccc(O)cc4n3)CC2)cc1`, which EC50 [1] is on record?
Its EC50 is > 50 µM (active).

What about the EC50 [2] of the same molecule?
Its EC50 is 3.47 µM (active).

For `COC(=O)CCC(=O)OC1(C)C(=O)C=C2C=C(C3CC3)N(C3CCCC3)C=C2C1=O` (stereo not given), which IC50 [3] is on record?
Its IC50 is > 67 µM (not active).

And the IC50 [4]?
Its IC50 is 11 µM (not active).

Which IC50 (Estrogen receptor) does the source give for `N#Cc1c(N)oc(-c2ccc3c(c2)OCO3)c1-c1ccc2c(c1)OCO2` here?
The IC50 was > 50 µM (not active).

What about the IC50 (Protein skinhead-1) of the same molecule?
The IC50 was > 100 µM (inactive).

For `COc1ccc(-n2nnc3c(SCC(=O)Nc4ccc5c(c4)OCCO5)ncnc32)cc1`, which EC50 [5] is on record?
Its EC50 is 7.96 µM (active).

What about the EC50 [6] of the same molecule?
The EC50 was 8.32 µM (active).

Which results are given for `Oc1cnn(-c2ccccc2)c1`?
IC50 [7]: > 100 µM (active); IC50 (Large T antigen): 4.71 µM (active); AC50 [8]: 12.7 µM (active); EC50 (Protein RecA): 1.1 µM (active)

With `O=C(Nc1ccon1)c1cnc2sccn2c1=O` as the molecule, how does the EC50 [2] read?
Its EC50 is 1.85 µM (active).

And the IC50 [9]?
The IC50 was 4.61 µM (active).

For `CCCC(=O)Nc1ccc2c(c1)OC[C@@H](C)N(Cc1ccccc1F)C[C@@H](C)[C@H](OC)CN(C)C2=O`, which AC50 [10] is on record?
Its AC50 is 4.01 µM (active).

And the AC50 [11]?
The AC50 was 0.841 µM (active).

And the AC50 [12]?
Its AC50 is 0.34 µM (active).

And the AC50 [13]?
Its AC50 is 1.78 µM (active).

What about the AC50 [14] of the same molecule?
The AC50 was 1.33 µM (active).

With `C[C@@H]1CCCCO[C@H](CN(C)S(=O)(=O)c2ccc(F)cc2)[C@H](C)CN([C@@H](C)CO)C(=O)c2cc(N(C)C)ccc2O1` as the molecule, how does the AC50 [15] read?
The AC50 was 5.44 µM (active).
